In patent US6737383B1, “Herbicidal oxadiazolidines” (priority 1999, dated 2004):

How the values were obtained:
morningglory = test: Test B pre/postemergence morningglory; format: in vivo, Ipomoea hederacea
Method in brief: (§1)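 Test chemicals in a non-phytotoxic solvent mixture with surfactant were sprayed preemergence onto planted seeds and postemergence onto plants 2 to 18 cm tall (1- to 4-leaf stage). After twelve to sixteen days in a greenhouse, injury was visually rated against untreated controls from 0 (no effect) to 10 (complete control).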

sugar beet = test: Test B pre/postemergence sugar beet; format: in vivo, Beta vulgaris
Method in brief: as §1

purple nutsedge = test: Test B pre/postemergence purple nutsedge; format: in vivo, Cyperus rotundus
Method in brief: as §1

giant foxtail = test: Test B pre/postemergence giant foxtail; format: in vivo, Setaria faberii
Method in brief: as §1

smallflower flatsedge = test: Test B flood test smallflower flatsedge; format: in vivo, Cyperus difformis
Method in brief: (§2)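 Plants were grown to the 2-leaf stage before treatment with test chemical, then held in a greenhouse for twelve to sixteen days. Injury was visually rated against untreated controls on a 0–10 scale, where 0 is no effect and 10 is complete control.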

pigweed = test: Test B pre/postemergence pigweed; format: in vivo, Amaranthus retroflexus
Method in brief: as §1

wild oat = test: Test B pre/postemergence wild oat; format: in vivo, Avena fatua
Method in brief: as §1

corn = test: Test B pre/postemergence corn; format: in vivo, Zea mays
Method in brief: as §1

surinam grass = test: Test B pre/postemergence surinam grass; format: in vivo, Brachiaria decumbens
Method in brief: as §1

rice = test: Test B flood test rice; format: in vivo, Oryza sativa
Method in brief: as §2

crabgrass = test: Test B pre/postemergence crabgrass; format: in vivo, Digitaria sanguinalis
Method in brief: as §1

velvetleaf = test: Test B pre/postemergence velvetleaf; format: in vivo, Abutilon theophrasti
Method in brief: as §1

duck salad = test: Test B flood test duck salad; format: in vivo, Heteranthera limosa
Method in brief: as §2

wheat = test: Test B pre/postemergence wheat; format: in vivo, Triticum aestivum
Method in brief: as §1

soybean = test: Test B pre/postemergence soybean; format: in vivo, Glycine max
Method in brief: as §1

blackgrass = test: Test B pre/postemergence blackgrass; format: in vivo, Alopecurus myosuroides
Method in brief: as §1

bamyardgrass = test: Test B flood test barnyardgrass; format: in vivo, Echinochloa crus-galli
Method in brief: as §2

cocklebur = test: Test B pre/postemergence cocklebur; format: in vivo, Xanthium strumarium
Method in brief: as §1

rape = test: Test B pre/postemergence rape; format: in vivo, Brassica napus
Method in brief: as §1

bedstraw = test: Test B pre/postemergence bedstraw; format: in vivo, Galium aparine; conditions: Preemergence
Method in brief: as §1

[1] = Postemergence, Rate 62 g/ha, scale 0 to 10, 0 is no effect, 10 is complete control
[2] = Postemergence, Rate 125 g/ha, scale of 0 to 10 where 0 is no effect and 10 is complete control
[3] = Postemergence, Rate 250 g/ha, scale of 0 to 10, 0 is no effect, 10 is complete control
[4] = Postemergence, Rate 500 g/ha, scale of 0 to 10 where 0 is no effect and 10 is complete control
[5] = Preemergence, Rate 62 g/ha, scale 0 to 10 (0 no effect, 10 complete control)
[6] = Preemergence, Rate 125 g/ha, scale of 0 to 10 where 0 is no effect and 10 is complete control
[7] = Preemergence, Rate 500 g/ha, scale of 0 to 10 where 0 is no effect and 10 is complete control
[8] = Rate 62 g/ha, flood test species, Pre-emergence, visual evaluation after twelve to sixteen days
[9] = Rate 125 g/ha, under heading Pre-emergence, flood test species, visual evaluation after twelve to sixteen days
[10] = Rate 250 g/ha, Pre-emergence (flood test species), scale 0 to 10, 0 is no effect, 10 is complete control
[11] = Rate 500 g/ha, Pre-emergence section of Table B, 0 to 10 scale (0 no effect, 10 complete control)

## CC(C)N(C(=O)n1oc(=O)n(CC(C)[N+](=O)[O-])c1=O)c1ccccc1 (stereo not drawn) [Compound 604]
morningglory; [1]
  Plant response rating, Morningglory: 0
morningglory; [2]
  Plant response rating, Morningglory: 1
morningglory; [3]
  Morningglory plant response rating: 2
morningglory; [4]
  Plant response rating, Morningglory: 2
morningglory; [5]
  Morningglory plant response rating: 0
morningglory; [6]
  Morningglory plant response rating: 0
morningglory; [7]
  Plant response rating, Morningglory: 0
Sugar beet; [1]
  Plant response rating, Sugarbeets: 0
Sugar beet; [2]
  Plant response rating, Sugarbeets: 0
Sugar beet; [3]
  Sugarbeets plant response rating: 0
Sugar beet; [4]
  Plant response rating, Sugarbeets: 0
Sugar beet; [5]
  Sugarbeets plant response rating: 0
Sugar beet; [6]
  Sugarbeets plant response rating: 0
Sugar beet; [7]
  Plant response rating, Sugarbeets: 0
Purple nutsedge; [1]
  Plant response rating, Nutsedge: 0
Purple nutsedge; [2]
  Plant response rating, Nutsedge: 0
Purple nutsedge; [3]
  Nutsedge plant response rating: 0
Purple nutsedge; [4]
  Plant response rating, Nutsedge: 0
Purple nutsedge; [5]
  Nutsedge plant response rating: 0
Purple nutsedge; [6]
  Nutsedge plant response rating: 0
Purple nutsedge; [7]
  Plant response rating, Nutsedge: 0
Giant foxtail; [1]
  Plant response rating, Giant foxtail: 1
Giant foxtail; [2]
  Plant response rating, Giant foxtail: 2
Giant foxtail; [3]
  Giant foxtail plant response rating: 3
Giant foxtail; [4]
  Plant response rating, Giant foxtail: 4
Giant foxtail; [5]
  Giant foxtail plant response rating: 0
Giant foxtail; [6]
  Giant foxtail plant response rating: 2
Giant foxtail; [7]
  Plant response rating, Giant foxtail: 7
Smallflower flatsedge; [8]
  Plant response rating, S. Flatsedge (0 to 10 scale, 0 is no effect, 10 is complete control): 0
Smallflower flatsedge; [9]
  S. Flatsedge plant response rating (0 to 10 scale, 0 is no effect, 10 is complete control): 0
Smallflower flatsedge; [10]
  S. Flatsedge plant response rating: 0
Smallflower flatsedge; [11]
  S. Flatsedge plant response rating: 0
pigweed; [1]
  Plant response rating, Redroot pigweed: 0
pigweed; [2]
  Plant response rating, Redroot pigweed: 0
pigweed; [3]
  Redroot pigweed plant response rating: 0
pigweed; [4]
  Plant response rating, Redroot pigweed: 0
pigweed; [5]
  Redroot pigweed plant response rating: 0
pigweed; [6]
  Redroot pigweed plant response rating: 0
pigweed; [7]
  Plant response rating, Redroot pigweed: 0
Wild oat; [1]
  Plant response rating, Wild oats: 0
Wild oat; [2]
  Plant response rating, Wild oats: 0
Wild oat; [3]
  Wild oats plant response rating: 0
Wild oat; [4]
  Plant response rating, Wild oats: 0
Wild oat; [5]
  Wild oats plant response rating: 0
Wild oat; [6]
  Wild oats plant response rating: 0
Wild oat; [7]
  Plant response rating, Wild oats: 0
corn; [1]
  Plant response rating, Corn: 0
corn; [2]
  Plant response rating, Corn: 0
corn; [3]
  Corn plant response rating: 0
corn; [4]
  Plant response rating, Corn: 0
corn; [5]
  Corn plant response rating: 0
corn; [6]
  Corn plant response rating: 0
corn; Preemergence, Rate 250 g/ha
  Corn plant response rating (0 to 10 scale): 0
corn; [7]
  Plant response rating, Corn: 0
Surinam grass; [1]
  Plant response rating, B. signalgrass: 0
Surinam grass; [2]
  Plant response rating, B. signalgrass: 0
Surinam grass; [3]
  B. signalgrass plant response rating: 0
Surinam grass; [4]
  Plant response rating, B. signalgrass: 0
Surinam grass; [5]
  B. signalgrass plant response rating: 0
Surinam grass; [6]
  B. signalgrass plant response rating: 0
Surinam grass; Preemergence, Rate 250 g/ha
  B. signalgrass plant response rating (0 to 10 scale, 0 is no effect, 10 is complete control): 0
Surinam grass; [7]
  B. signalgrass plant response rating: 0
rice; [8]
  Plant response rating, Rice (0 to 10 scale, 0 is no effect, 10 is complete control): 0
rice; [9]
  Rice plant response rating (0 to 10 scale, 0 is no effect, 10 is complete control): 0
rice; [10]
  Rice plant response rating: 0
rice; [11]
  Rice plant response rating: 0
crabgrass; [1]
  Plant response rating, Crabgrass: 1
crabgrass; [3]
  Crabgrass plant response rating: 3
crabgrass; [4]
  Plant response rating, Crabgrass: 3
crabgrass; [5]
  Crabgrass plant response rating: 0
crabgrass; [6]
  Crabgrass plant response rating: 0
crabgrass; [7]
  Plant response rating, Crabgrass: 1
velvetleaf; [1]
  Plant response rating, Velvetleaf: 0
velvetleaf; [2]
  Plant response rating, Velvetleaf: 0
velvetleaf; [3]
  Velvetleaf plant response rating: 0
velvetleaf; [4]
  Plant response rating, Velvetleaf: 0
velvetleaf; [5]
  Velvetleaf plant response rating: 0
velvetleaf; [6]
  Velvetleaf plant response rating: 0
velvetleaf; [7]
  Plant response rating, Velvetleaf: 0
Duck salad; [8]
  Plant response rating, Ducksalad (0 to 10 scale, 0 is no effect, 10 is complete control): 0
Duck salad; [9]
  Ducksalad plant response rating (0 to 10 scale, 0 is no effect, 10 is complete control): 0
Duck salad; [10]
  Ducksalad plant response rating: 0
Duck salad; [11]
  Ducksalad plant response rating: 0
wheat; [1]
  Plant response rating, Wheat: 0
wheat; [2]
  Plant response rating, Wheat: 0
wheat; [3]
  Wheat plant response rating: 0
wheat; [4]
  Plant response rating, Wheat: 0
wheat; [5]
  Wheat plant response rating: 0
wheat; [6]
  Wheat plant response rating: 0
wheat; [7]
  Plant response rating, Wheat: 0
soybean; [1]
  Plant response rating, Soybean: 0
soybean; [2]
  Plant response rating, Soybean: 1
soybean; [3]
  Soybean plant response rating: 1
soybean; [4]
  Plant response rating, Soybean: 1
soybean; [5]
  Soybean plant response rating: 0
soybean; [6]
  Soybean plant response rating: 0
soybean; [7]
  Plant response rating, Soybean: 0
blackgrass; [1]
  Plant response rating, Blackgrass: 0
blackgrass; [2]
  Plant response rating, Blackgrass: 0
blackgrass; [3]
  Blackgrass plant response rating: 0
blackgrass; [4]
  Plant response rating, Blackgrass: 0
blackgrass; [5]
  Blackgrass plant response rating: 0
blackgrass; [6]
  Blackgrass plant response rating: 0
blackgrass; Preemergence, Rate 250 g/ha
  Blackgrass plant response rating (0 to 10 scale): 0
blackgrass; [7]
  Blackgrass plant response rating: 0
bamyardgrass; [8]
  Plant response rating, Barnyardgrass (0 to 10 scale, 0 is no effect, 10 is complete control): 0
bamyardgrass; [9]
  Barnyardgrass plant response rating (0 to 10 scale, 0 is no effect, 10 is complete control): 0
bamyardgrass; [10]
  Barnyardgrass plant response rating: 0
bamyardgrass; [11]
  Barnyardgrass plant response rating: 0
cocklebur; [1]
  Plant response rating, Cocklebur: 0
cocklebur; [2]
  Plant response rating, Cocklebur: 0
cocklebur; [3]
  Cocklebur plant response rating: 0
cocklebur; [4]
  Plant response rating, Cocklebur: 0
cocklebur; [5]
  Cocklebur plant response rating: 0
cocklebur; [6]
  Cocklebur plant response rating: 0
cocklebur; Preemergence, Rate 250 g/ha
  Cocklebur plant response rating (0 to 10 scale): 0
cocklebur; [7]
  Plant response rating, Cocklebur: 0
rape; [1]
  Plant response rating, Rape: 0
rape; [2]
  Plant response rating, Rape: 0
rape; [3]
  Rape plant response rating: 0
rape; [4]
  Plant response rating, Rape: 0
rape; [5]
  Rape plant response rating: 0
rape; [6]
  Rape plant response rating: 0
rape; [7]
  Plant response rating, Rape: 0
bedstraw; Rate 250 g/ha
  Bedstraw plant response rating (0 to 10 scale): 0
bedstraw; Rate 500 g/ha, scale of 0 to 10 where 0 is no effect and 10 is complete control
  Bedstraw plant response rating: 0
